Measured values reported in ChEMBL document CHEMBL5346903, “Discovery of novel and bioavailable histone deacetylases and cyclin-dependent kinases dual inhibitor to impair the stemness of leukemia cells” (Eur J Med Chem, 2023).

How the values were obtained:
[1] = system: HL-60; assay: Induction of apoptosis in human HL-60 cells assessed as early apoptotic cells at 2.5 uM incubated for 48 hrs by annexin V-FITC/PI satining based flow cytometry (reference value: 2.4 %); assay type: functional
[2] = system: HL-60; assay: Induction of apoptosis in human HL-60 cells assessed as late apoptotic cells at 0.6 uM incubated for 48 hrs by annexin V-FITC/PI satining based flow cytometry (reference value: 2.83 %); assay type: functional
[3] = system: HL-60; assay: Induction of apoptosis in human HL-60 cells assessed as late apoptotic cells at 2.5 uM incubated for 48 hrs by annexin V-FITC/PI satining based flow cytometry (reference value: 2.83 %); assay type: functional
[4] = system: HL-60; assay: Induction of apoptosis in human HL-60 cells assessed as late apoptotic cells at 5 uM incubated for 48 hrs by annexin V-FITC/PI satining based flow cytometry (reference value: 2.83 %); assay type: functional
[5] = system: HL-60; assay: Induction of apoptosis in human HL-60 cells assessed as necrotic cells at 1.2 uM incubated for 48 hrs by annexin V-FITC/PI satining based flow cytometry (reference value: 0.04 %); assay type: functional
[6] = system: HL-60; assay: Induction of apoptosis in human HL-60 cells assessed as necrotic cells at 2.5 uM incubated for 48 hrs by annexin V-FITC/PI satining based flow cytometry (reference value: 0.04 %); assay type: functional
[7] = system: U-937; assay: Induction of apoptosis in human U-937 cells assessed as viable cells at 0.6 uM incubated for 48 hrs by annexin V-FITC/PI satining based flow cytometry (reference value: 93.7 %); assay type: functional; settings: read-out: Activity
[8] = system: U-937; assay: Induction of apoptosis in human U-937 cells assessed as viable cells at 1.2 uM incubated for 48 hrs by annexin V-FITC/PI satining based flow cytometry (reference value: 93.7 %); assay type: functional; settings: read-out: Activity
[9] = system: U-937; assay: Induction of apoptosis in human U-937 cells assessed as early apoptotic cells at 1.2 uM incubated for 48 hrs by annexin V-FITC/PI satining based flow cytometry (reference value: 1.93 %); assay type: functional
[10] = system: U-937; assay: Induction of apoptosis in human U-937 cells assessed as early apoptotic cells at 5 uM incubated for 48 hrs by annexin V-FITC/PI satining based flow cytometry (reference value: 1.93 %); assay type: functional
[11] = system: U-937; assay: Induction of apoptosis in human U-937 cells assessed as late apoptotic cells at 0.6 uM incubated for 48 hrs by annexin V-FITC/PI satining based flow cytometry (reference value: 4.23 %); assay type: functional
[12] = system: U-937; assay: Induction of apoptosis in human U-937 cells assessed as late apoptotic cells at 5 uM incubated for 48 hrs by annexin V-FITC/PI satining based flow cytometry (reference value: 4.23 %); assay type: functional
[13] = system: U-937; assay: Induction of apoptosis in human U-937 cells assessed as necrotic cells at 1.2 uM incubated for 48 hrs by annexin V-FITC/PI satining based flow cytometry (reference value: 0.102 %); assay type: functional
[14] = system: U-937; assay: Induction of apoptosis in human U-937 cells assessed as necrotic cells at 2.5 uM incubated for 48 hrs by annexin V-FITC/PI satining based flow cytometry (reference value: 0.102 %); assay type: functional
[15] = system: U-937; assay: Induction of apoptosis in human U-937 cells assessed as necrotic cells at 5 uM incubated for 48 hrs by annexin V-FITC/PI satining based flow cytometry (reference value: 0.102 %); assay type: functional
[16] = Antiproliferative activity against HEK293T cells incubated for 72 hrs by CCK8 assay; assay type: toxicity, cell-based, HEK-293T; settings: human
[17] = target: Histone deacetylase 3 (Homo sapiens, UniProt O15379); assay: Inhibition of recombinant human HDAC3 using HDAC substrate incubated for 30 mins by fluorescence based assay
[18] = target: Histone deacetylase 4 (Homo sapiens, UniProt P56524); assay: Inhibition of recombinant human HDAC4 using HDAC substrate incubated for 30 mins by fluorescence based assay
[19] = target: Histone deacetylase 8 (Homo sapiens, UniProt Q9BY41); assay: Inhibition of recombinant human HDAC8 using HDAC substrate incubated for 30 mins by fluorescence based assay
[20] = target: CDK12/Cyclin K (Homo sapiens) (UniProt O75909+Q9NYV4); assay: Inhibition of CDK12/cyclinK (unknown origin) at 100 nM preincubated for 20 mins followed by [gamma-33P]ATP addition measured after 120 mins in presence of ATP by Hot-SpotSM kinase assay relative to control; assay type: protein-complex assay; settings: time 140.0 min
[21] = system: HL-60; assay: Downregulation of Pol-II S2 level in human HL-60 cells incubated for 6 hrs by Western blot analysis; assay type: functional, cell-based; settings: dose <= 1000.0 nM
[22] = system: HL-60; assay: Induction of apoptosis in human HL-60 cells assessed as viable cells at 0.5 uM incubated for 48 hrs by annexin V-FITC/PI satining based flow cytometry (reference value: 97.4 %); assay type: functional; settings: read-out: Activity
[23] = system: HL-60; assay: Induction of apoptosis in human HL-60 cells assessed as early apoptotic cells at 1 uM incubated for 48 hrs by annexin V-FITC/PI satining based flow cytometry (reference value: 1.24 %); assay type: functional
[24] = system: HL-60; assay: Induction of apoptosis in human HL-60 cells assessed as necrotic cells at 2 uM incubated for 48 hrs by annexin V-FITC/PI satining based flow cytometry (reference value: 0.00 %); assay type: functional
[25] = system: U-937; assay: Induction of apoptosis in human U-937 cells assessed as viable cells at 1 uM incubated for 48 hrs by annexin V-FITC/PI satining based flow cytometry (reference value: 90.0 %); assay type: functional; settings: read-out: Activity
[26] = system: U-937; assay: Induction of apoptosis in human U-937 cells assessed as early apoptotic cells at 0.5 uM incubated for 48 hrs by annexin V-FITC/PI satining based flow cytometry (reference value: 0.945 %); assay type: functional
[27] = system: U-937; assay: Induction of apoptosis in human U-937 cells assessed as early apoptotic cells at 2 uM incubated for 48 hrs by annexin V-FITC/PI satining based flow cytometry (reference value: 0.945 %); assay type: functional
[28] = system: U-937; assay: Induction of apoptosis in human U-937 cells assessed as late apoptotic cells at 1 uM incubated for 48 hrs by annexin V-FITC/PI satining based flow cytometry (reference value: 7.10 %); assay type: functional
[29] = system: U-937; assay: Induction of apoptosis in human U-937 cells assessed as necrotic cells at 1 uM incubated for 48 hrs by annexin V-FITC/PI satining based flow cytometry (reference value: 1.96 %); assay type: functional
[30] = system: HL-60; assay: Induction of differentiation in human HL-60 cells assessed as increase in CD11b positive cells at 1 uM incubated for 24 hrs by FITC staining based flow cytometry (reference value: 1.45 %); assay type: functional
[31] = Half life in Sprague-Dawley rat at 5 mg/kg, iv measured upto 6 hrs by LC/MS-MS analysis; assay type: ADME, organism-based; settings: in vivo
[32] = MRT in Sprague-Dawley rat at 5 mg/kg, iv measured upto 6 hrs by LC/MS-MS analysis; assay type: ADME, organism-based; settings: in vivo
[33] = Half life in Sprague-Dawley rat at 25 mg/kg, po measured upto 8 hrs by LC/MS-MS analysis; assay type: ADME, organism-based; settings: in vivo
[34] = MRT in Sprague-Dawley rat at 25 mg/kg, po measured upto 8 hrs by LC/MS-MS analysis; assay type: ADME, organism-based; settings: in vivo
[35] = target: CDK2/Cyclin A2 (Homo sapiens) (UniProt P24941+P20248); settings: dose 100.0 nM, time 140.0 min

Chain of Histone deacetylase 8 (Q9BY41 whole entry): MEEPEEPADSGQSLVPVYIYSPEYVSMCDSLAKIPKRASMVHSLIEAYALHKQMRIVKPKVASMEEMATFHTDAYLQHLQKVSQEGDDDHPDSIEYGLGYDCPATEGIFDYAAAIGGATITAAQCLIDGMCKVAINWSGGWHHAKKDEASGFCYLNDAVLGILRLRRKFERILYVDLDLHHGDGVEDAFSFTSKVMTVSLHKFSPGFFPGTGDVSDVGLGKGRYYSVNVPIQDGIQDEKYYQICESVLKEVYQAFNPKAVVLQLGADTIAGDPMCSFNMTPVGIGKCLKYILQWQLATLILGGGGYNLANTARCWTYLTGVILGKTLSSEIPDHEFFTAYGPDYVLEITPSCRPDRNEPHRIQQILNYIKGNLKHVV
Chain of Histone deacetylase 3 (O15379 whole entry): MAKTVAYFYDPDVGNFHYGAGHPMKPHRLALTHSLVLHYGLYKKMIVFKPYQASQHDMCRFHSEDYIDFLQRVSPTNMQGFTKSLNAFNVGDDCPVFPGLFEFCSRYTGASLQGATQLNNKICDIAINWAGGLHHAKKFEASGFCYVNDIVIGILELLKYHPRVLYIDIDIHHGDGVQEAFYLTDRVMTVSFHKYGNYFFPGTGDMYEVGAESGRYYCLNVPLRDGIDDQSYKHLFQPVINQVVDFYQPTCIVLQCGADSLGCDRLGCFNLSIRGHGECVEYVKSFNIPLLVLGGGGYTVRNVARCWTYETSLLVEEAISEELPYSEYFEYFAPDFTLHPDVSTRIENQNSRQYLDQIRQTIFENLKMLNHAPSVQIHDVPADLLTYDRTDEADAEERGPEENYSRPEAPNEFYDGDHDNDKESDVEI
Chain of CDK12/Cyclin K (Homo sapiens) (O75909 whole entry, looked up): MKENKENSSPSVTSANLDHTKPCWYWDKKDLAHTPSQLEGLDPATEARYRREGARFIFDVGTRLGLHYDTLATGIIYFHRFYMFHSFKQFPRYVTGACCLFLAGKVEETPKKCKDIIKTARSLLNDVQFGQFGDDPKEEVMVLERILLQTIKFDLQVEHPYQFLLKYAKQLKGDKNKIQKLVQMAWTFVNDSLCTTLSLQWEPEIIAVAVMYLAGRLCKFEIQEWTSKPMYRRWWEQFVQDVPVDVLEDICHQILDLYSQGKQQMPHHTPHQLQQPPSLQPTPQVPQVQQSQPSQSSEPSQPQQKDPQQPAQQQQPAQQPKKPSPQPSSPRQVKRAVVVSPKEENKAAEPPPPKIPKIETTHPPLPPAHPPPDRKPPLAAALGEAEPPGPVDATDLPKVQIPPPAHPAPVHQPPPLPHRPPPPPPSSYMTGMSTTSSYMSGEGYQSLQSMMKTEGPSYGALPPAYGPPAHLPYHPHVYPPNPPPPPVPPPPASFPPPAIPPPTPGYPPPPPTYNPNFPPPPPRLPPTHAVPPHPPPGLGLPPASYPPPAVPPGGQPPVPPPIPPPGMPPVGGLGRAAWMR
Chain of CDK12/Cyclin K (Homo sapiens) (Q9NYV4 whole entry, looked up): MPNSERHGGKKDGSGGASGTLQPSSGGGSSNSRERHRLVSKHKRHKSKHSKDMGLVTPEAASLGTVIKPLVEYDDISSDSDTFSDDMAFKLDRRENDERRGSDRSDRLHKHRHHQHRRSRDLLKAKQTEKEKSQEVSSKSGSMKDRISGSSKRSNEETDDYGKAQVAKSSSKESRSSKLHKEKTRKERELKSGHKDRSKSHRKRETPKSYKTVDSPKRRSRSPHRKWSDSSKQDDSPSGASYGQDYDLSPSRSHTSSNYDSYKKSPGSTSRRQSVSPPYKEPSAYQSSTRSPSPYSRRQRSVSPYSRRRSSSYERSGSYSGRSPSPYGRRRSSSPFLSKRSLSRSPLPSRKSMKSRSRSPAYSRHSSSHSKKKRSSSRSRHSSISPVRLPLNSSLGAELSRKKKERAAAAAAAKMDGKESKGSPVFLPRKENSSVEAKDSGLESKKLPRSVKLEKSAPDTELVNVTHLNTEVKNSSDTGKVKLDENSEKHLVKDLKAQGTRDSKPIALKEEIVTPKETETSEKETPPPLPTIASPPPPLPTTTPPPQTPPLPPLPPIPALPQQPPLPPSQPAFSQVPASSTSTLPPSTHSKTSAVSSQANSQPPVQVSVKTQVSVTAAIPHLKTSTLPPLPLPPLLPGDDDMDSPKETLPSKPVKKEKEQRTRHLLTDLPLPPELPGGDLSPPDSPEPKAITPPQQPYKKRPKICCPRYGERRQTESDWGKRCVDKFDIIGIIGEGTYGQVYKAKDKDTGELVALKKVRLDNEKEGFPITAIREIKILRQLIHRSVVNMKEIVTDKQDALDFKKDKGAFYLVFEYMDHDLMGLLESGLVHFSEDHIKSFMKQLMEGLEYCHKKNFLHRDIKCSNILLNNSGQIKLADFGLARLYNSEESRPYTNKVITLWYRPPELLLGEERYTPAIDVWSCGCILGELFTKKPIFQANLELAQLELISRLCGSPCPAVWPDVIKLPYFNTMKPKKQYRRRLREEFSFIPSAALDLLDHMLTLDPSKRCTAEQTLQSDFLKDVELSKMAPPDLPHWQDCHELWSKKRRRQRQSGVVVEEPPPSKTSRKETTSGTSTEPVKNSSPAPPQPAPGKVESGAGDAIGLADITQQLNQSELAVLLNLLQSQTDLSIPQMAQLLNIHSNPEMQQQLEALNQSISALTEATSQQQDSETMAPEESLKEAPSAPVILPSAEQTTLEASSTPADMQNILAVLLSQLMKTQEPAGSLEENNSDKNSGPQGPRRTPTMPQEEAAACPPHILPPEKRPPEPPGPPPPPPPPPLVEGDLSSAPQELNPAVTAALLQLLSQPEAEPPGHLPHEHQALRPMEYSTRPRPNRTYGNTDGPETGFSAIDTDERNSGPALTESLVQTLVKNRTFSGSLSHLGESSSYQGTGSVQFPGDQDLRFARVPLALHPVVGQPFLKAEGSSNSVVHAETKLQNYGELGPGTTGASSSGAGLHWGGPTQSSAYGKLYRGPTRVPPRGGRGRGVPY
Chain of Histone deacetylase 4 (P56524 whole entry): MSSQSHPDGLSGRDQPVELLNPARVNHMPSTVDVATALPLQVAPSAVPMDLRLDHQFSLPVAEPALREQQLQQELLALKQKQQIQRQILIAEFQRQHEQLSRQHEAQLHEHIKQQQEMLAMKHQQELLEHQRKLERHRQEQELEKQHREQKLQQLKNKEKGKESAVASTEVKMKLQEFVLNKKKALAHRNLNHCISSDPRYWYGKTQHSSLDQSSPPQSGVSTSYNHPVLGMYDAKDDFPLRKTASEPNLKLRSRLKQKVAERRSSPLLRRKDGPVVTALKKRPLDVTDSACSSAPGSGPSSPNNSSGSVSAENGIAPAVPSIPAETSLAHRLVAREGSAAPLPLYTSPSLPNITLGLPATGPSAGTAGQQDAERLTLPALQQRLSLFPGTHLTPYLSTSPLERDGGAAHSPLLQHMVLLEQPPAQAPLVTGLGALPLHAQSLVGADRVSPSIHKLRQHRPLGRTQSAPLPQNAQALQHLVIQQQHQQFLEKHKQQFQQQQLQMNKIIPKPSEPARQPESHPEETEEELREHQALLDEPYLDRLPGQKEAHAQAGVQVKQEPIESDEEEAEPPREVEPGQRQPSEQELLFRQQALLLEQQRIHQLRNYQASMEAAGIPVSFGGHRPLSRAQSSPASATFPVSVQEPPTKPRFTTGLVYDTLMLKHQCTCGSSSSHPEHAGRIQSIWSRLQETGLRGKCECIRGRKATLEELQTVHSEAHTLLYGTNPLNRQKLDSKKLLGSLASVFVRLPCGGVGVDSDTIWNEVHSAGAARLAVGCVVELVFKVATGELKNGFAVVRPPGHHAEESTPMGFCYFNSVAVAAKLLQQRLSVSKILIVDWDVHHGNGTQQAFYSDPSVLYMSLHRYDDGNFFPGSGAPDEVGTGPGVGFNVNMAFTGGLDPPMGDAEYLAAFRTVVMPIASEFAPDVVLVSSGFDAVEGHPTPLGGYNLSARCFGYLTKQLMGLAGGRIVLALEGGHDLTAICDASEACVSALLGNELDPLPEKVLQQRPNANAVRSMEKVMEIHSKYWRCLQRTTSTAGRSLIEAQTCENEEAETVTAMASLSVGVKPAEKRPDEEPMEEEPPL

`Nc1cc(F)ccc1NC(=O)c1ccc(CNC(=O)/C=C/c2cccnc2)cc1` [TUCIDINOSTAT] showed an Activity [1] of 5.95%, an Activity [2] of 2.27% and an Activity [3] of 37.9%. The Activity [4] was 73.4%, the Activity [5] was 0.04% and the Activity [6] was 0.05%. The viability at 0.6 µM [7] was 93.5%, the viability at 1.2 µM [8] was 90.3% and the Activity [9] was 2.74%. For the same molecule, the Activity [10] was 4.66%, the Activity [11] was 4.81% and the Activity [12] was 22.7%. It also gave an Activity [13] of 0.142%, an Activity [14] of 0.084% and an Activity [15] of 0.117%.
With `Nc1ccccc1NC(=O)c1ccc(NC(=O)c2n[nH]cc2NC(=O)c2c(Cl)cccc2Cl)cc1` the IC50 at 72 h [16] was > 20000 nM, the IC50 [17] was 40.4 nM and the IC50 [18] was > 1000 nM. The IC50 [19] was 1010 nM, the inhibition [20] was 98.8% and the Activity [21] was “Dose-Dependent Effect”. The viability at 0.5 µM [22] was 94.4%, the Activity [23] was 17% and the Activity [24] was 4.87%. It also gave a viability at 1 µM [25] of 48.9%, an Activity [26] of 1.99% and an Activity [27] of 2.14%. For the same molecule, the Activity [28] was 34.1%, the Activity [29] was 15.1% and the Activity [30] was 37.6%. The t1/2 [31] was 6.6 min, the MRT [32] was 0.39 h and the t1/2 [33] was 1.37 h. For the same molecule, the MRT [34] was 1.27 h and the inhibition [35] was 69.1%.
